“Also recorded” adds a separate entry of the source.
What was measured:
[1] = tested on: patients; conditions: over ∼1 year; cited from earlier work
[2] = Water solubility; format: physicochemical; conditions: in distilled water
Experimental: The synthesis of dicyanocobinamide (Cbi) was performed according to previously reported methods.[59] Briefly, to a 10 mL microwave reaction vessel containing a magnetic stir bar were added B12 (cyanocobalamin) (303.8 mg, 0.225 mmol) (see Figures S1–S6), sodium cyanide (NaCN) (36.9 mg, 0.7096 mmol), and 5 mL of EtOH, and the vessel was sealed. The reaction was heated to 120 °C for 10 min. Following completion of the microwave reaction, the remaining solution was transferred and diluted using isopropyl alcohol (iPrOH). The reaction was purified utilizing a normal-phase silica column. The reaction was eluted using 100% methanol (MeOH). The product eluted as a purple product. The isolated product was precipitated utilizing diethyl ether (Et2O) and allowed to dry producing a solid, purple product, 2 (see Figure 2), in 80% yield (187.4 mg, 0.1795 mmol). Solubility was measured to be 400 mg/mL in distilled water.

[3] = target: human glucagon like peptide-1 receptor (human) (UniProt P43220); assay: AlphaScreen or HTRF; Taglite fluorescence competitive binding assay (Euroscreen Fast, Cat No. FAST0154B) on CHO-K1 cells at the human GLP-1R; agonist tracer GLP-1red at 4 nM, reference competitor nEx-4; nine concentrations from 1 pM to 1 uM, duplicate independent runs
[4] = target: rat GLP-1R (rat) (UniProt P32301)
[5] = target: human glucagon like peptide-1 receptor (human) (UniProt P43220)
[6] = tested on: shrews; assay: Food intake and body weight (energy balance) in shrews; format: in vivo, Suncus murinus; conditions: 5 nmol/kg IP, single dose, n = 10 shrews
Experimental: Food intake was evaluated using our custom-made feedometers, consisting of a standard plexiglass rodent housing cage (29 × 19 × 12.7 cm) with mounted food hoppers resting on a plexiglass cup (to account for spillage). Shrews had ad libitum access to powdered food through a circular (3 cm diameter) hole in the cage. Food was removed 1 h prior to the dark onset. […] Food intake was manually measured at 6, 24, and 48 h post injection. BW was measured at 0, 24, and 48 h.

human glucagon like peptide-1 receptor (human), sequence (P43220 24-463): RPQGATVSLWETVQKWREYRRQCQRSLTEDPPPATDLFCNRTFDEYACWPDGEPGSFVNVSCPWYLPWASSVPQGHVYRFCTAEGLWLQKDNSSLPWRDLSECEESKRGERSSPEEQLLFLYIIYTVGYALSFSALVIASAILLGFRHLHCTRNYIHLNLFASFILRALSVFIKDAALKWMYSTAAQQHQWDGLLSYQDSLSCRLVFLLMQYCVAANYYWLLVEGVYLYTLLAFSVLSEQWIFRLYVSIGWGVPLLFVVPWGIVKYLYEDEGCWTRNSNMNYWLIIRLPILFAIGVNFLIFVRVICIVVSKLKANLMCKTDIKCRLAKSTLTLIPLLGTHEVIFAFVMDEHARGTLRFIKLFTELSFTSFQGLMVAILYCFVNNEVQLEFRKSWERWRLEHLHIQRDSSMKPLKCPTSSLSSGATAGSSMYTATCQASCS
rat GLP-1R (rat), sequence (P32301 22-463): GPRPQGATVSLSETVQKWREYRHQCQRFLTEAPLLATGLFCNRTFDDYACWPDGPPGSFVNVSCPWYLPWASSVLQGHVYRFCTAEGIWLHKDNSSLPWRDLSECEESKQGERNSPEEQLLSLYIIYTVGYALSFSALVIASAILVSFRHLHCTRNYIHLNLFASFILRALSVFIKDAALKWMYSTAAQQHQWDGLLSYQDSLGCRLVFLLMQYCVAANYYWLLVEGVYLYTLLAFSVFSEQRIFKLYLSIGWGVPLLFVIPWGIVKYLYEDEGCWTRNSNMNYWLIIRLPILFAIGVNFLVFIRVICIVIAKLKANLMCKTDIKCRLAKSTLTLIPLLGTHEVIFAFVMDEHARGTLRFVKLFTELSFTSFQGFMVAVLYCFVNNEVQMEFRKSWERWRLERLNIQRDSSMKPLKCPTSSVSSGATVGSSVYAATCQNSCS

## semaglutide
[1]
  Body weight reduction: 10–12%

## C/C1=C2/[N-]C([C@H](CC(N)=O)[C@@]2(C)CCC(=O)NCC(C)O)[C@]2(C)N=C(/C(C)=C3N=C(/C=C4N=C1[C@@H](CCC(N)=O)C\4(C)C)[C@@H](CCC(N)=O)[C@]\3(C)CC(N)=O)[C@@H](CCC(N)=O)[C@]2(C)CC(N)=O.[C-]#N.[C-]#N.[Co] (stereo partly drawn) [compound 2, dicyanocobinamide]
[2]
  Solubility: 400 mg/mL

## liraglutide (HAEGTFTSDVSSYLEGQAAKEFIAWLVRGRG; chains of the INN, looked up) [GLP-1R agonist]
[1]
  Body weight reduction: 5–6%

## native Exendin-4 (from UniProt P26349 48-87) (peptide)
[3]
  IC50: 4.97 nM
[4]
  EC50 of functional agonism at the rat GLP-1R: 0.048 nM

## exendin-4 with an azido-lysine added as residue 40 (from UniProt P26349 48-87) (peptide)
[5]
  EC50 of agonism: cAMP FRET reporter H188 in HEK293 cells stably expressing the human GLP-1R: 0.0104 nM

## Cbi-Ex4 [compound 1]
[6]; 6, 24, 48 h (72 h in Figure 6D)
  Food intake: had no effect on food intake; also recorded: had no impact on feeding
[6]; 24 h
  Body weight: No significant changes in body weight; also recorded: not observed

## exendin-4 with K12 azido modification (from UniProt P26349 48-87) (peptide)
[5]
  EC50 of agonism: cAMP FRET reporter H188 in HEK293 cells stably expressing the human GLP-1R: 0.0125 nM

— article PMC8279408
